As a reminder, the IC50 is the midpoint of a concentration-inhibition curve.

Where no end group is shown, it is not given here.

In assay [1] the target is Src kinase (Homo sapiens, UniProt P12931). The assay can be described thus: FRET assay of Src phosphorylation of rhodamine labelled SHPS-1 peptide, read by binding to SHP2-GFP. It is filed as biochemical. To be noted: 10 μM staurosporine added before the Src enzyme; FIG. 19. Here is the method:
These FRET-based assays are performed to measure Src kinase activity as determined by the Src kinase dependent formation of a complex between the SH2 domain of SHP2 labelled with a fluorophore and an synthetic peptide based on SHPS-1, also labelled with a fluorophore.
Interaction between the tandem SH2 domain of SHP2 and a synthetic peptide based on SHPS-1 is mediated by the state of phosphorylation of the peptide. A FRET partnership can be established between phosphorylated peptide and the SH2 domain providing both moieties are labelled with suitable fluorophores which are brought into close proximity upon interaction of binding partners. […]
SHP2-GFP was diluted to 0.5 μM in assay buffer (50 mM Tris HCL pH 7.2, 10 mM β-mercaptoethanol, 0.5 mg/ml BSA, 0.015% Brij 35). […] Initial readings of the fluorescence of the SHP2-GFP construct were made using 485 nm excitation wavelength and 520 nm emission wavelength. Rhodamine labelled peptide (2 μl of the above phosphorylation reactions) was added to the SHP2-GFP solution and formation of FRET was monitored in real-time by measuring the decrease in fluorescence emission of SHP2-GFP at 520 nm as shown in FIG. 17. […]

The target of assay [2] is Yersinia protein tyrosine phosphatase (YOP) (Yersinia enterocolitica, UniProt P15273). It is filed as biochemical. To be noted: read-out: IC50 for inhibition of YOP.
In assay [3] the target is T1, Chk1 protein kinase (Homo sapiens, UniProt O14757). The note with it: EDTA 10 mM or 20 mM added prior to enzyme addition; FIG. 8.
For assay [4], the target named is T1, Chk1 protein kinase. The note with it: EDTA 1 mM, 5 mM or 20 mM added before 21 mU Chk1; FIG. 11.
The target in assay [5] is T2, PKA Peptide 2, labelled with biotin and bound to streptavidin, non-phosphorylated (biotin label (bound to streptavidin in the assay)).
T2 construct: Coiled-coil forming peptide with a PKA phosphorylation site
T2 peptide: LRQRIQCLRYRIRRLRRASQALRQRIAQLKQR
The experiment in a line: fluorescence polarisation of coumarin labelled peptide 1 with biotin labelled peptide 2 on streptavidin.

T1 sequence (O14757 whole entry): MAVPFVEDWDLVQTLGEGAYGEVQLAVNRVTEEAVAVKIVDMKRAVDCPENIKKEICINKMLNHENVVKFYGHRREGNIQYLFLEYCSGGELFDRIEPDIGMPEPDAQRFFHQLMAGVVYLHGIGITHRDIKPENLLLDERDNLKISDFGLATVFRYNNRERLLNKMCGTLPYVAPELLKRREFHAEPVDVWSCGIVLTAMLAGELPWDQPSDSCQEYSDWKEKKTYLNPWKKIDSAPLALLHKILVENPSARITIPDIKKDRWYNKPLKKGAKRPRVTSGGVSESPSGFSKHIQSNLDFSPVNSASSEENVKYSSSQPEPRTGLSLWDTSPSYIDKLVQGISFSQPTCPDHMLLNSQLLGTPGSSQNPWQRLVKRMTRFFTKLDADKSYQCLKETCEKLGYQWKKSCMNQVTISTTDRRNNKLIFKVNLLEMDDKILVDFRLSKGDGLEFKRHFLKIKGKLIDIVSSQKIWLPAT
Sequence of Yersinia protein tyrosine phosphatase (YOP) (P15273 whole entry): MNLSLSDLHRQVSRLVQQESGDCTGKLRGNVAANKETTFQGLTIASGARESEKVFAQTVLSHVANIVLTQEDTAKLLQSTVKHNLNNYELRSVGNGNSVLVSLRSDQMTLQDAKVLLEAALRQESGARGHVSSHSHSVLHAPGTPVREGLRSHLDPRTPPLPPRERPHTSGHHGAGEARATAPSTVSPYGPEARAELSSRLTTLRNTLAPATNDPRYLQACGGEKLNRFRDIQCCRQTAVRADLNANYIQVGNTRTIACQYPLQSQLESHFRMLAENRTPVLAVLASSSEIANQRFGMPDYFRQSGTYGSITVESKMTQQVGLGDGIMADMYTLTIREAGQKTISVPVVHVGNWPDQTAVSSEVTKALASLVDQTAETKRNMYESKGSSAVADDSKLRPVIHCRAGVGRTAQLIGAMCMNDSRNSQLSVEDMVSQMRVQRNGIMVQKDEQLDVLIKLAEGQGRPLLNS
Sequence of Src kinase (P12931 whole entry, the tested form may be a part): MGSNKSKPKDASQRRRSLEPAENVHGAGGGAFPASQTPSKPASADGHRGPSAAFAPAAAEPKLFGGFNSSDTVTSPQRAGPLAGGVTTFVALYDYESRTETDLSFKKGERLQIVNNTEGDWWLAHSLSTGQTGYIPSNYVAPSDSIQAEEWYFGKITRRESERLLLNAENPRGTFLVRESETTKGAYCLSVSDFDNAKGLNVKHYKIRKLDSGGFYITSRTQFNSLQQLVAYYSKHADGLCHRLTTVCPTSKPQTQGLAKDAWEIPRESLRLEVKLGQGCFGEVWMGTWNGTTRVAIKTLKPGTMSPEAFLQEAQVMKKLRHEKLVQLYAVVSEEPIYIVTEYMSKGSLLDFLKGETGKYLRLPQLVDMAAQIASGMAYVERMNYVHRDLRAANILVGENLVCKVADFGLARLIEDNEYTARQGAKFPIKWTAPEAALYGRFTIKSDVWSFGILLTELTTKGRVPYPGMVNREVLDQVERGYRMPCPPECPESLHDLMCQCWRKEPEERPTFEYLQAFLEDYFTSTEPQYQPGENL

Regarding `CN[C@@H]1C[C@H]2O[C@@](C)([C@@H]1OC)n1c3ccccc3c3c4c(c5c6ccccc6n2c5c31)C(=O)NC4` [staurosporine], the “Inhibition of Src: formation of FRET partnership between SH2 domain of SHP2 and SHPS-1 peptide” value in assay [1] is recorded as “failed to form a FRET partnership”.

As for `[Na+].[Na+].[Na+].[O]=[V]([O-])([O-])[O-]` [vanadate, Sodium orthovanadate], in assay [2], the half-inhibitory concentration (IC50) was determined as 250 nM.

As for `O=C(O)CN(CCN(CC(=O)O)CC(=O)O)CC(=O)O` [EDTA], the “Inhibition of Chk1 phosphorylation of Chktide peptide (end point)” value in assay [3] is listed as “inhibition”. The “Inhibition of Chk1 phosphorylation of fluorescein labelled Chktide (real time)” value in assay [4] is “inhibition”.

B1: PKA Peptide 1, labelled with coumarin, non-phosphorylated (peptide)
peptide: EREIKALEREIRRLRRASQALEREIAQLERE
modifications: also: coumarin label, position not given here
notes: Coiled-coil forming peptide with a PKA phosphorylation site; also called coumarin labelled peptide 1
In the case of B1, the binding result in assay [5] was “binds”.

For the origin of these results see US6670144B1 (priority 1999, dated 2003).
